Laboratory results reported in article PMC4018403, “Transient Receptor Potential Ankyrin 1 Receptor Activation In Vitro and In Vivo by Pro-tussive Agents: GRC 17536 as a Promising Anti-Tussive Therapeutic” (PLoS ONE, 2014).

Experiments:
TRPA1 mRNA = assay: Real-time RT-PCR of TRPA1 mRNA in hTRPA1/CHO cells; type: cell-based, human; conditions: pre-incubation with TLR ligand
Method: Total RNA was extracted from hTRPA1/CHO cells using TRI reagent (Sigma, St. Louise, MO, USA). 3 µg of RNA was reverse transcribed using iScript select cDNA synthesis kit (Biorad Hercules, CA, USA) according to the manufacturer's instructions to produce single-stranded cDNA. RT-PCR was performed with an real-time thermal cycler Eppendorf Mastercycler Ep (Eppendorf AG, Hamburg, Germany) using iTaq SYBR Green Supermix with ROX kit (Biorad Hercules, CA, USA) with human TRPA1 specific primers: 5′-[…]-3′(sense primer) and 5′-CTTTTATGTCTACTTG GGCACCTT-3′(antisense primer). RT-PCR reaction was carried out for 40 cycles at 94°C for 30 s, 60°C for 15 s and 60°C for 60 s. Data was interpreted using 2^(-ΔΔCT) Livak method of analysis.

TRPA1 [1] = target: T1, TRPA1 (Homo sapiens, UniProt O75762); assay: TLR ligand-enhanced 45Ca+2 uptake in hTRPA1/CHO cells; type: cell-based; design: expressed in transfected cells
T1 sequence (O75762 whole entry): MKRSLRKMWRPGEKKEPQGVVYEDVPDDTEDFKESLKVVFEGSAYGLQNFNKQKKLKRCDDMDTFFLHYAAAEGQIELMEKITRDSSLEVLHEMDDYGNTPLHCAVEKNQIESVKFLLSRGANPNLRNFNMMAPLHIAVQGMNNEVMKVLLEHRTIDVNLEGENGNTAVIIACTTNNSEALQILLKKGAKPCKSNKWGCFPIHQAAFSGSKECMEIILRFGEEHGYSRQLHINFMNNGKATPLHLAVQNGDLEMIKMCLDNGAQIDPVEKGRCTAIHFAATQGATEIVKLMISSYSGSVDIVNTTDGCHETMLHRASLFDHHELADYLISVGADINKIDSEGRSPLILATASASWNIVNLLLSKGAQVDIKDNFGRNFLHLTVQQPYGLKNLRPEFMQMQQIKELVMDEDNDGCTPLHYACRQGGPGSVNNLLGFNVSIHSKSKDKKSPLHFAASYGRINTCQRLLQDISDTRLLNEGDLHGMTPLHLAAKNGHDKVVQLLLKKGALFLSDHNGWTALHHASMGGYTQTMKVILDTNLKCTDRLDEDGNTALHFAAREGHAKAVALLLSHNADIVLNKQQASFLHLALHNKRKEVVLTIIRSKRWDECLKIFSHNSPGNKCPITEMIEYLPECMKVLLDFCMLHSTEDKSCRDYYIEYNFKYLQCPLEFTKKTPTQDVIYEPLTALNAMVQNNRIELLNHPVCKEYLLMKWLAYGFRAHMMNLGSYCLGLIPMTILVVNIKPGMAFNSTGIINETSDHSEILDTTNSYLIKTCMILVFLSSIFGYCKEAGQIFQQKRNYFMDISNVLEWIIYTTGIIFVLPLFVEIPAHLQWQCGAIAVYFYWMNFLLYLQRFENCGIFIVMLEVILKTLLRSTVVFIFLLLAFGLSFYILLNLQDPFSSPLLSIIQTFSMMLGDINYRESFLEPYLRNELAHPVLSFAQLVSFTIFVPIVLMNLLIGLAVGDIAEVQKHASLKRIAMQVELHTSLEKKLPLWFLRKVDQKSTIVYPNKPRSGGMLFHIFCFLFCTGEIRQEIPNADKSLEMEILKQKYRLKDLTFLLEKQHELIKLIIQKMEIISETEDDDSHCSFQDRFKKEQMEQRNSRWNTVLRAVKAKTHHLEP
Method: (§1) Human lung fibroblast cells, CCD19-Lu (ATCC CCL-210) were obtained from American Type Culture Collection (ATCC; Rockville, MD, USA) and cultured in MEM supplemented with 10% FBS. Human pulmonary alveolar epithelial cell line A549 (ATCC CCL-185) was also obtained from ATCC and maintained in DMEM F-12 supplemented with 10% FBS. Both the cell types were cultured at 37°C in humidified air containing 5% CO2. Chinese hamster ovary (CHO) cells stably expressing human TRPA1 (hTRPA1/CHO), TRPV1 (hTRPV1/CHO), TRPV3 (hTRPV3/CHO), TRPV4 (hTRPV4/CHO and TRPM8 (hTRPM8/CHO were generated in-house and maintained in DMEM F-12 supplemented with 10% FBS and G418.
(§2) Fluorimetric and radiometric Ca^+2 influx assay was performed as described earlier. GRC 17536, GRC 17770, compound 7 or GRC 6211 was added to the cells 15 minutes prior to addition of agonist. Citric acid stock solution (1 M) was prepared in dH2O. Subsequent dilutions were made in Ca^+2, Mg^+2 free PBS (pH 7.3). No significant change in pH was observed upto 10 mM citric acid. At 30 mM concentration of citric acid, the pH of the solution dropped to 5.5. TLR ligands - LPS (10 µg/ml, TLR4), loxoribine (10 µM, TLR7) and ssRNA40 (1 µg/ml, TLR8) were dissolved in media and added to the cells for 16–18 hours. TRP selectivity of GRC 17536 and compound 7 was performed for TRPV1, TRPV3, TRPV4 and TRPM8 using Capsaicin (1 µM), 2-APB (1 mM), 4α-PDD (30 µM) and Icilin (250 nM) respectively, as agonist.

TRPA1 [2] = target: T1, TRPA1; assay: TLR ligand-enhanced 45Ca+2 uptake in A549 cells; type: cell-based; design: A549 cells have been reported to express endogenous TRPA1; host or cells: A549; conditions: A549 cells; TLR ligand pre-treatment 16-18 hours
Method: as §1, §2

[3] = test system: citric acid induced cough response; assay: Citric acid induced conscious cough model; type: in vivo, guinea pig; conditions: 30 mg/kg i.p., 2 h before citric acid aerosol (0.4 M)
Method: Male Hartley guinea pigs (200–600 g, Harlan, UK) were acclimatized in cages (20–22°C, with a light/dark cycle of 12/12 hours) before beginning of the experiments and were maintained on an ad lib standard guinea pig pellet diet and water containing dietary amounts of ascorbic acid.
Cough was detected both by pressure change and by sound and recorded with a Buxco cough analyzer (Buxco, Wilmington, NC, USA) as described earlier. Guinea pigs were randomly assigned to various test groups and were treated with different doses of GRC 17536 or Dextromethorphan i.p. before tussive challenge. The Vehicle control group received only 0.5% methyl cellulose. Two hours after i.p. administration of vehicle or test compounds, animals were placed in individual whole body plethysmographs and were exposed to citric acid aerosol (0.4 M) and the incidences of cough were recorded for 10 minutes with the help of Buxco cough analyzer.
For in vitro experiments, data was analyzed using GraphPad Prism 3.0 (GraphPad Software Inc. San Diego, CA, USA). For in vivo experiment, data from the treatment groups were compared with the control group. Mean values were statistically analyzed by one-way analysis of variance (ANOVA) followed by the Dunnett's Multiple Comparisons Test to evaluate significant differences between groups.

C=CCn1c(=O)n([C@@H]2O[C@H](CO)[C@@H](O)[C@H]2O)c2nc(N)[nH]c(=O)c21 [Loxoribine, reference compound]
TRPA1 mRNA levels compared to control (TRPA1 mRNA): enhance TRPA1 expression
Increase in 45Ca+2 uptake over AITC alone (TRPA1 [1]; hTRPA1/CHO, pre-treatment Loxoribine 10 µM or ssRNA40 1 µg/ml, 16-18 hours): 20%
Increase in 45Ca+2 uptake by TLR ligand alone (TRPA1 [1]; ligand alone, no TRPA1 agonist, 'these cells', data not shown): did not show any increase
Enhancement of AITC mediated 45Ca+2 uptake (TRPA1 [2]): 30%

COc1ccc2c(c1)[C@]13CCCC[C@@H]1[C@H](C2)N(C)CC3 [Dextromethorphan, reference compound]
Inhibition of cough response [3]: 66%
